Laboratory results taken from patent US7399608B2, “Microbial detection and quantification” (Kimberly-Clark Worldwide, Inc., priority 2003, dated 2008).

What was measured:
[1] = test system: bacteria from aged chicken juice; assay: Reichardt's dye indicator spray on surfaces contaminated with aged chicken; details: for false-positive test: chicken broth versus aged chicken juice: 160 mg in 10 ml isopropanol
[2] = test system: bacteria in aged chicken juice; assay: Dried dye coating on ceramic surface with or without TWEEN 80, aged chicken juice; details: 80 mg/10 mL acetonitrile with 200 μL TWEEN 80, dried on ceramic, drop of aged chicken juice
Source text: This solution was then used to coat a ceramic surface (FIG. 11) and allowed to air dry. […] After drying, a drop of aged chicken juice known to have a high bacterial count was placed on the each coating area (11B). […] Furthermore, the addition of TWEEN® surfactant allowed for easy removal of the dye from the surface.

[3] = test system: S. aureus; assay: De-colorization of Reichardt's dye-coated paper and stickers by bacteria; design: species or system Staphylococcus aureus
Experimental: This experiment tested the ability of a surface coating of Reichardt's dye to respond to bacterial contamination. […] To this paper was added 100 μL aliquots of 10^7, 10^6, 10^5, and 10^4 CFU/mL E. coli or S. aureus solutions (8B). Water was used as a negative control. […] It was later determined that while both bacteria solutions were indeed at 10^7 CFU/mL concentrations, the actual concentration of the S. aureus solution was 7×10^7 CFU/mL compared to 1×10^7 CFU/mL for the E. coli solution.
A sheet of paper self-adhesive stickers (Avery-Dennison) was also brush-coated with two different concentrations of Reichardt's dye solution (160 mg/10 mL acetonitrile, 80 mg/10 mL acetonitrile). The stickers were applied to the lid and latch mechanism of a Huggies® Wet Wipes box. A gloved hand was used to transfer 10^7 CFU/mL S. aureus to the surface of the stickers. […] The sticker could provide a means for easy and rapid detection of bacterial contamination for a variety of applications.

[4] = test system: gram-positive bacteria; assay: Dye solution added to bacteria spot on SCOTT towel
Experimental: A new potential for the Reichardt's dye-based bacterial indicator was realized through testing of liquid dye with bacteria on a substrate rather than substrate-bound dye coming into contact with liquid bacteria (Example 5). This experiment focused on determining how the dye solution responds to known concentrations of bacteria residing on a surface. 100 μl of 10^8 CFU/ml gram-positive bacteria was placed on a SCOTT® towel (FIG. 9A). To this spot was added a drop of the Reichardt's dye dissolved in acetonitrile (160 mg in 10 ml acetonitrile) (9B).
For comparison, a spot of dye was dried onto the towel and the same amount of bacteria was added. […] Additional drops of the dye were added to the spot of bacteria (9C), and de-colorization continued until the fourth drop, at which point the purple color persisted (9D). Attempts to restore the dye color on the dye-coated SCOTT® towel by adding acetonitrile using a pipette were unsuccessful (9E).

[5] = test system: E. coli; assay: Titration of substrate-bound microorganism with Reichardt's dye solution; design: species or system Escherichia coli; details: 160 mg in 10 ml acetonitrile, 10 μl aliquots; 100 μl of 10^7 CFU/ml on towel
[6] = Effect of acid and strong base on Reichardt's dye de-colorization; format: physicochemical
Source text: This was repeated with another area.

[7] = test system: vaginal fluid samples (lactobacillus, BV bacteria); assay: Reichardt's dye-coated stickers with normal and BV-infected vaginal fluid
Experimental: Considering the high prevalence of vaginal infections of bacterial origin, an experiment was performed to determine the response of Reichardt's dye-coated stickers to healthy (low pH, no bacterial infection), a pH positive/Bacterial Vaginosis (BV) negative (no bacterial infection, but higher than normal pH), and pH positive/BV positive (higher than normal pH and known bacterial infection) vaginal fluid samples. […] A sticker of each concentration was tested with normal, BV positive/pH positive, and BV negative/pH positive vaginal fluid samples.

[8] = test system: microbes on computer keyboard; assay: Indicator spray on computer keyboard
Experimental: Reichardt's dye was dissolved in isopropanol (160 mg in 10 mL of isopropanol) and attached to an aerosol-based spray device. The keyboard was then sprayed with the indicator solution (10B).

[9] = test system: E. coli; assay: Cyclodextrin enhancement: coated towel with bacteria; design: species or system Escherichia coli; details: hydroxypropyl-beta-cyclodextrin coated towel
Experimental: A SCOTT® paper towel was first coated with hydroxypropyl-beta-cyclodextrin (from Cerestar International, Hammond, Ind., USA) in solution in water (1 gram in 20 ml) by dipping and air-drying at ambient temperature. When dry the coated paper towel was treated with a solution of Reichardt's dye in isopropanol (1 weight percent) and allowed to air-dry. The dried towel was a purple/blue in color. Here the cyclodextrin hinders the crystallization of the dye allowing a more vivid color of the dye to occur on the paper towel. This coated towel was used in a test with gram-negative bacteria (E. coli) and found to turn colorless in less than 5 seconds when an aliquot of 100 microliters of media containing 10,000 CFU/ml was applied to the towel. […] Thus by hindering the dye from crystallizing, the dye is believed to be present on the substrate as single molecules and therefore the sensitivity of the dye to bacteria levels increases. The inventors believe that by careful use of a coating (e.g. cyclodextrin) on the towel a mono-molecular coating of dye will occur on the surface of the substrate and maximum sensitivity will occur.

[10] = test system: Polio virus type 1; details: virus diluted serially in media, 50-microliter aliquots, 3 minutes
[11] = test system: Herpes Simplex Virus 1 (HSV-1); assay: Virus detection with Reichardt's dye-coated stickers; details: 50-microliter droplet, 3 minutes
[12] = test system: S. aureus; assay: Semi-quantification of bacterial contamination on dye-treated paper; design: species or system Staphylococcus aureus
Experimental: The color differences at lower concentrations were less distinct, particularly for the brush-coated sheet. A blind study was then conducted. […] Concentrations of these three drops were unknown to two of the experiment participants. After approximately 2 minutes, the drops were removed and blotted. Using the control regions, the concentrations of each sample were each visually estimated by these two persons. Both persons correctly estimated the concentration of the first sample to be 10^6 CFU/mL. […] The persons, however, incorrectly estimated the third sample to be 10^3 CFU/mL. […] The present inventors believe, however, that the concentration of the chromogen and uniformity of the coating may be readily selected to achieve accurate results at such low concentrations.

[13] = 160 mg in 10 ml acetonitrile dried on SCOTT towel

For [O-]c1c(-c2ccccc2)cc(-[n+]2c(-c3ccccc3)cc(-c3ccccc3)cc2-c2ccccc2)cc1-c1ccccc1 [Reichardt's dye, 2,6-diphenyl-4-(2,4,6-triphenylpyridinio)-phenolate], the “color change of indicator spray on area contacted by aged chicken” value ([1]; 160 mg in 10 mL acetonitrile, sprayed on ceramic plate) was “decolorized”, the “color change of indicator spray on contaminated doorknob” value ([1]; 160 mg in 10 mL isopropanol, plastic doorknob marked with aged chicken juice) was “de-colorization of the Reichardt's dye from blue to colorless” and the “false-positive test: chicken broth versus aged chicken juice” value ([1]; ceramic surface) was “only the side containing the aged chicken juice (and thus bacteria) was de-colorized”. The “false-positive test: chicken broth versus aged chicken juice” value ([1]; hot plate surface) was “only the side containing the aged chicken juice (and thus bacteria) was de-colorized”, the “de-colorization after cleaning guided by the spray” value ([1]; isopropanol spray, ceramic surface cleaned again with 60% ethanol antiseptic) was “no de-colorization took place” and the “de-colorization faster with TWEEN 80 surfactant than without” value [2] was 20 to 30 s. The de-colorization time ([3]; paper brush-coated with 80 mg/10 mL acetonitrile, 100 μL of 10^7 to 10^4 CFU/mL) was < 1 min, the “de-colorization of coated stickers” value ([3]; stickers coated with 160 or 80 mg/10 mL acetonitrile, 10^7 CFU/mL transferred by gloved hand) was “rapidly de-colorized” and the “de-colorization of dye solution added to bacteria spot” value ([4]; 160 mg in 10 ml acetonitrile dropped on 100 μl of 10^8 CFU/ml on SCOTT towel) was “immediately de-colorized”. The “drop at which the purple color persisted” value ([4]; 160 mg in 10 ml acetonitrile, 100 μl of 10^8 CFU/ml) was “fourth drop”, the “time to de-colorize when bacteria are placed onto dye dried on towel” value ([4]; dye spot dried on cellulosic towel, same amount of bacteria) was “several minutes” and the “Amount of Dye Required for Persistent Color” value [5] was 80 µL. For the same molecule, the “effect of 1 N NaOH on acid-decolorized dye spots” value [6, 13] was “rapid re-colorization”, the “effect of acetic acid and Aldrich buffer pH 2.0 on dried dye spots” value [6, 13] was “rapid de-colorization” and the “effect of 1 N NaOH on dye decolorized by aged chicken juice” value ([6]; indicator spray 160 mg in 10 ml acetonitrile, hot plate surface) was “re-colorization of that small spot”. For the same molecule, the “de-colorization by BV negative/pH positive vaginal fluid” value [7] was “only faintly de-colorized”, the “de-colorization by BV positive/pH positive vaginal fluid” value [7] was “next sharpest de-colorization” and the “de-colorization by normal vaginal fluid” value [7] was “sharpest de-colorization”. The “de-colorization of spray on old computer keyboard” value [8] was “rapid de-colorization of the dye in certain areas”, the “lowest bacteria concentration at which decolorization occurred” value ([9]; 1 weight percent dye in isopropanol) was 500 CFU/ml and the “time to turn colorless” value ([9]; 1 weight percent dye in isopropanol, 100 microliters of 10,000 CFU/ml) was “less than 5 seconds”. For the same molecule, the time to decolorize ([9]; 500 CFU/ml) was ≤ 15 s, the “lowest ten-fold dilution at which stickers changed color” value [10] was 10^−6 and the “de-colorization of sticker by undiluted virus” value [11] was “stronger de-colorization of the sticker than that observed for Rhinovirus and Polio virus”. The “visually estimated concentration, blind study third sample” value ([12]; actual 10^4 CFU/mL, dip-coated sheet) was 10^3 CFU/mL, the “visually estimated concentration, blind study second sample” value ([12]; actual 10^5 CFU/mL, brush-coated sheet) was 10^5 CFU/mL and the “visually estimated concentration, blind study first sample” value ([12]; actual 10^6 CFU/mL, dip-coated sheet) was 10^6 CFU/mL.
